Test results taken from the supplement of paper PMC11061612.

Tests used:
Assay in all cases: combination Emax (second highest fraction inhibited in the dose matrix, 72 h); higher = more inhibition; extreme values may be limits of the assay
[1] = tested on: LS-513 (Colorectal Carcinoma)
Procedure, shortened: (§1)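 After 24 hours at 37°C and 5% CO2 in 1536-well plates, cells in DMEM/F12 or RPMI plus 10% FBS received two-drug dose matrices for 72 hours. Viability came from CellTiter-Glo 2.0 luminescence and was scaled as inhibition, anchored at 0 by vehicle wells and at 1 by blank wells. Combination Emax is taken as the second-highest inhibition in the matrix, and Bliss excess as the observed combination effect less EA + EB − EA·EB, with EA and EB the single-agent effects.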

DSH1 (Bladder Carcinoma) = tested on: DSH1 (Bladder Carcinoma)
Procedure, shortened: as §1

SN12C (Kidney Carcinoma) = tested on: SN12C (Kidney Carcinoma)
Procedure, shortened: as §1

[2] = tested on: MDA-MB-231 (Breast Carcinoma)
Procedure, shortened: as §1

[3] = tested on: KARPAS-1106P (B-Cell Non-Hodgkin's Lymphoma)
Procedure, shortened: as §1

[4] = tested on: NCI-H1299 (Non-Small Cell Lung Carcinoma)
Procedure, shortened: as §1

[5] = tested on: U-266 (Plasma Cell Myeloma)
Procedure, shortened: as §1

[6] = tested on: KARPAS-620 (Plasma Cell Myeloma)
Procedure, shortened: as §1

[7] = tested on: TE-5 (Esophageal Squamous Cell Carcinoma)
Procedure, shortened: as §1

[8] = tested on: G-292-Clone-A141B1 (Osteosarcoma)
Procedure, shortened: as §1

[9] = tested on: SW1783 (Low Grade Glioma)
Procedure, shortened: as §1

[10] = tested on: COR-L95 (Small Cell Lung Carcinoma)
Procedure, shortened: as §1

NCI-H2595 (Mesothelioma) = tested on: NCI-H2595 (Mesothelioma)
Procedure, shortened: as §1

[11] = tested on: DOV13 (Ovarian Carcinoma)
Procedure, shortened: as §1

[12] = tested on: OCI-AML2 (Acute Myeloid Leukemia)
Procedure, shortened: as §1

[13] = tested on: IHH-4 (Thyroid Gland Carcinoma)
Procedure, shortened: as §1

[14] = tested on: MDA-MB-157 (Breast Carcinoma)
Procedure, shortened: as §1

SK-N-FI (Neuroblastoma) = tested on: SK-N-FI (Neuroblastoma)
Procedure, shortened: as §1

[15] = tested on: DB (B-Cell Non-Hodgkin's Lymphoma)
Procedure, shortened: as §1

[16] = tested on: MFH-ino (Other Solid Carcinomas)
Procedure, shortened: as §1

Row | SMILES | combination Emax [1] | combination Emax (DSH1 (Bladder Carcinoma)) | combination Emax (SN12C (Kidney Carcinoma)) | combination Emax [2] | combination Emax [3] | combination Emax [4] | combination Emax [5] | combination Emax [6] | combination Emax [7] | combination Emax [8] | combination Emax [9] | combination Emax [10] | combination Emax (NCI-H2595 (Mesothelioma)) | combination Emax [11] | combination Emax [12] | combination Emax [13] | combination Emax [14] | combination Emax (SK-N-FI (Neuroblastoma)) | combination Emax [15] | combination Emax [16]
1 | C[C@@H](Nc1cc(F)cc(F)c1)c1cc(C(=O)N(C)C)cc2c(=O)cc(N3CCOCC3)oc12 [AZD8186] + C1CN(CCC1(C(=O)N[C@@H](CCO)C2=CC=C(C=C2)Cl)N)C3=NC=NC4=C3C=CN4 [AZD5363] (first compound max 10 µM, 7x7, partner max 10 µM) | 0.534 | 0.327 | 0.149 | 0.281 | 0.755 | 0.314 | 0.138 | 0.767 | 0.35 | 0.515 | 0.479 | 0.225 | 0.24 | 0.28 | 0.473 | 0.227 | 0.264 | 0.335 | 0.0629 | 0.348
2 | C[C@@H](Nc1cc(F)cc(F)c1)c1cc(C(=O)N(C)C)cc2c(=O)cc(N3CCOCC3)oc12 [AZD8186] + CC(=O)c1c(C)c2cnc(Nc3ccc(N4CCNCC4)cn3)nc2n(C2CCCC2)c1=O [Palbociclib] (first compound max 10 µM, 7x7, partner max 10 µM) | 0.584 | 0.471 | 0.281 | 0.49 | 0.791 | 0.497 | 0.155 | 0.775 | 0.394 | 0.428 | 0.617 | 0.273 | 0.303 | 0.484 | 0.834 | 0.426 | 0.333 | 0.43 | 0.601 | 0.423
3 | C[C@@H](Oc1cc(-c2cnn(C3CCNCC3)c2)cnc1N)c1c(Cl)ccc(F)c1Cl [Crizotinib] + CC1=C(C(=CC=C1)Cl)NC(=O)C2=CN=C(S2)NC3=CC(=NC(=N3)C)N4CCN(CC4)CCO [Dasatinib] (first compound max 10 µM, 7x7, partner max 2 µM) | 0.978 | 0.437 | 0.231 | 0.94 | 0.954 | 0.734 | 0.499 | 0.835 | 0.56 | 0.762 | 0.784 | 0.354 | 0.628 | 1 | 0.826 | 0.875 | 0.303 | 0.422 | 0.711 | 0.821
4 | C[C@@H](Oc1cc(-c2cnn(C3CCNCC3)c2)cnc1N)c1c(Cl)ccc(F)c1Cl [Crizotinib] + Cn1cnc2c(F)c(Nc3ccc(Br)cc3Cl)c(C(=O)NOCCO)cc21 [Selumetinib] (first compound max 10 µM, 7x7, partner max 10 µM) | 1 | 0.229 | 0.244 | 0.725 | 0.953 | 0.574 | 0.624 | 0.941 | 0.186 | 0.794 | 0.194 | 0.345 | 0.292 | 0.647 | 1 | 0.758 | 0.243 | 0.809 | 0.751 | 0.542
5 | CS(=O)(=O)CCNCc1ccc(-c2ccc3ncnc(Nc4ccc(OCc5cccc(F)c5)c(Cl)c4)c3c2)o1 [Lapatinib] + Cn1cnc2c(F)c(Nc3ccc(Br)cc3Cl)c(C(=O)NOCCO)cc21 [Selumetinib] (first compound max 10 µM, 7x7, partner max 10 µM) | 0.949 | 0.802 | 0.28 | 0.631 | 0.617 | 0.338 | 0.621 | 0.72 | 0.369 | 0.192 | 0.216 | 0.207 | 0.25 | 0.357 | 1 | 0.563 | 0.262 | 0.582 | 0.63 | 0.462
6 | CS(=O)(=O)CCNCc1ccc(-c2ccc3ncnc(Nc4ccc(OCc5cccc(F)c5)c(Cl)c4)c3c2)o1 [Lapatinib] + NC1(c2ccc(-c3nc4ccn5c(=O)[nH]nc5c4cc3-c3ccccc3)cc2)CCC1 [MK-2206] (first compound max 10 µM, 7x7, partner max 10 µM) | 0.951 | 1 | 0.238 | 0.729 | 0.666 | 0.407 | 0.352 | 0.928 | 0.728 | 0.468 | 0.395 | 0.904 | 0.228 | 0.867 | 0.912 | 0.92 | 0.273 | 0.461 | 0.944 | 0.153
7 | O=C(c1cc(Cc2n[nH]c(=O)c3ccccc23)ccc1F)N1CCN(C(=O)C2CC2)CC1 [Olaparib] + CC1(C)CCC(CN2CCN(c3ccc(C(=O)NS(=O)(=O)c4ccc(NCC5CCOCC5)c([N+](=O)[O-])c4)c(Oc4cnc5[nH]ccc5c4)c3)CC2)=C(c2ccc(Cl)cc2)C1 [Venetoclax] (first compound max 10 µM, 7x7, partner max 1 µM) | 0.18 | 0.272 | 0.206 | 0.239 | 0.402 | 0.0838 | 0.248 | 0.872 | 0.0752 | 0.0374 | 0.0873 | 0.846 | 0.109 | 0.158 | 0.99 | 0.169 | 0.165 | 0.0529 | 0.849 | 0.118
